From publication PMC11440508, “Dually Labeled Neurotensin NTS1R Ligands for Probing Radiochemical and Fluorescence-Based Binding Assays” (Journal of Medicinal Chemistry, 2024)

Biological target: NTS1R (Homo sapiens, UniProt P30989)
Assay: Flow cytometric (FC) association and dissociation kinetics, suspended CHO-hNTS1R cells
Type: binding
Details: FC (suspension); for koff: 23 °C, read-out: koff [min^–1] (converted); for kon: calculated from kobs, koff and ligand concentration, read-out: kon [min^–1 nM^–1] (converted)
Method: Flow cytometry-based NTS1R binding studies were performed with intact CHO-hNTS1R (all kind of experiments) and HT-29 cells (only saturation binding) using a BD FACSCanto II (Becton Dickinson, Heidelberg, Germany), equipped with an argon laser (488 nm) and a red diode laser (640 nm), and a BD High Throughput Sampler (HTS unit) for microtiter plates. Saturation and competition binding experiments were performed in triplicate in 96-well polypropylene plates (Brand 701330, Wertheim, Germany) using the HTS unit for sample injection. Association and dissociation experiments were performed in duplicate in 5 mL polypropylene tubes (VWR, Radnor) using the standard injection port of the flow cytometer. The following gain settings for forward and sideward scatter were applied: FSC, 0 V; SSC, 252 V. Fluorescence was recorded using the PE-channel (excitation: 488 nm, emission: 585 ± 21) nm with a PMT gain of 330–400 V. For measurements using the HTS unit, 45 μL of the sample were injected with a speed of 1.5 μL/s. For measurements, requiring the use of the standard injection port, the medium flow rate ([…]) was used. Measurements were stopped after 30 s (HTS unit) or after counting of 500–3000 gated events (standard injection port).
Cells were seeded in T75 culture flasks 3–4 days (CHO-hNTS1R cells) or 5–6 days (HT-29 cells) prior to the experiment. On the day of the experiment, cells were detached by trypsinization, suspended in DPBS1 and centrifuged at 200g at rt for 5 min. […]
5 mL polypropylene tubes were prefilled with 2000 μL of cell suspension and DMSO/H2O 2:8 v/v (20 μL) were added (determination of total binding). […] Specific binding data, obtained by subtracting triplicate mean values of unspecific binding from triplicate mean values of total binding, were plotted against the time and analyzed by a three-parameter equation describing an exponential rise to a maximum (one-phase association, Y0 constrained to zero, GraphPad Prism 5) to yield the observed association rate constant kobs. […]
5 mL polypropylene tubes were prefilled with 2000 μL of cell suspension. […] After different periods of time (1–240 min), sample aliquots were measured by placing the tube in the injection port of the flow cytometer. Specific binding data, obtained by subtracting triplicate mean values of unspecific binding from triplicate mean values of total binding, were plotted against the time and analyzed by a three-parameter equation describing an incomplete monophasic exponential decline (one phase decay, GraphPad Prism 5) to obtain koff values. […]
The kon and Kd(kin) values were calculated as described for high-content imaging binding experiments.

Sequence of NTS1R (P30989 whole entry): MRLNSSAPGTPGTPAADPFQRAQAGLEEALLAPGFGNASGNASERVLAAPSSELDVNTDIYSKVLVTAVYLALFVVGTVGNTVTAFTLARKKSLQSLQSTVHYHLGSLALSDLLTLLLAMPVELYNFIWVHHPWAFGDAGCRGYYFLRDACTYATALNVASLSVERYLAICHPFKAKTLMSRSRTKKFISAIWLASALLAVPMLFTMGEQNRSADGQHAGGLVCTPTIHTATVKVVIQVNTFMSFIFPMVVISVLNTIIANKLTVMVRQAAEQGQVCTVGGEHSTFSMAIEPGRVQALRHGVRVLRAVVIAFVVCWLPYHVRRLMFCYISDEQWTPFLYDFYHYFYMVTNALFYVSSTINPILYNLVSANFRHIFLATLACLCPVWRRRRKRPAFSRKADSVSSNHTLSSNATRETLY

Row | SMILES | koff | kon
1 | CCC(=O)NCCCCNC(=O)N=C(N)NCCC[C@H](NC(=O)[C@@H]1CCCN1C(=O)[C@@H](NC(=O)CCc1cn(CCCNC(=O)c2ccc(-c3c4ccc(=[N+](C)C)cc-4oc4cc(N(C)C)ccc34)c(C(=O)[O-])c2)nn1)C1CCNCC1)C(=O)N[C@@H](CCCNC(=N)N)C(=O)N1CCC[C@H]1C(=O)N[C@@H](Cc1ccc(O)cc1)C(=O)N[C@H](C(=O)N[C@@H](CC(C)C)C(=O)O)[C@@H](C)CC [Compound 13, N^α-(3-(1-N-((1-Carboxylato-2-(6-(dimethylamino)-3-(dimethyliminio)-3H-xanthen-9-yl)phen-5-yl)1-oxomethyl)aminoprop-3-yl-1H-1,2,3-triazol-4-yl)propanoyl)-2-(piperidin-4-yl)-Gly-Pro-N^ω-[(4-(N-propanoyl)aminobutyl)aminocarbonyl]Arg-Arg-Pro-Tyr-Ile-Leu Tris(hydrotrifluoroacetate)] | 0.000333 s⁻¹ | 8e+06 M⁻¹ s⁻¹
2 | CCC(=O)NCCCCNC(=O)NC(=N)NCCC[C@H](NC(=O)[C@@H]1CCCN1C(=O)[C@@H](NC(=O)CCc1cn(CCCNC(=O)CCC#Cc2ccc3c(c2)C(C)(C)C2=C4C=C5C6=[N+](CCC5OC4CCN23)c2ccc(S(=O)(=O)[O-])cc2C6(C)C)nn1)C1CCNCC1)C(=O)N[C@@H](CCCNC(=N)N)C(=O)N1CCC[C@H]1C(=O)N[C@H](C(=O)N[C@H](C(=O)N[C@@H](CC(C)C)C(=O)O)[C@@H](C)CC)C(C)(C)c1ccc(O)cc1 (stereo partly drawn) [Compound 18, N^α-(3-(N-(1-(8-Sulfonato-5,5,27,27-tetramethyl-16-oxa-20-aza-12-azoniaheptacyclo[15.11.0.03,15.04,12.06,11.020,28.021,26]octacosa-1(28),2,4(12),6(11),7,9,21(26),22,24-nonaen-24-yl)-5-oxopentyn-5-yl)-1-aminoprop-3-yl-1H-1,2,3-triazol-4-yl)propanoyl)-2-(piperidin-4-yl)-Gly-Pro-N^ω-[(4-(N-propanoyl)aminobutyl)aminocarbonyl]Arg-Arg-Pro-β,β-dimethyl-L-Tyr-Ile-Leu Tris(hydrotrifluoroacetate)] | 0.0004 s⁻¹ | 2.67e+06 M⁻¹ s⁻¹
